# Measurements: PMC8557866, “Novel Small Molecule Growth Inhibitor Affecting Bacterial Outer Membrane Reduces Extraintestinal Pathogenic Escherichia coli (ExPEC) Infection in Avian Model” (Microbiology Spectrum, 2021)
# What was measured:
# APEC O78 [1] = system: APEC O78; set-up: method as in PMID 30333507; conditions: cited from earlier work
# APEC = assay: LPS analysis in outer membrane of APEC; format: cell-based, Escherichia coli; conditions: vs untreated APEC; total carbohydrate assay P < 0.0001
# Description: Extracted LPS (normalized based on the OD600 before extraction) was separated on a 4-to-20% gradient SDS-PAGE gel and stained with Coomassie blue R-250 to visualize the LPS levels ([83]). In addition, LPS was also quantitated using a total carbohydrate assay kit (Cell Biolabs, Inc., San Diego, CA) following the manufacturer’s protocol. Two independent experiments with six replicates in each experiment were performed.
# APEC O78 [2] = assay: Gene expression analysis by RT-qPCR in GI-7-treated APEC; format: cell-based, Escherichia coli; conditions: 4 h treatment, vs untreated APEC
# Description: We also quantitated the expression of other genes essential for maintaining OM integrity (bamA, mlaA, lolB, and pbgA) ([21]). […] An APEC O78 culture treated with 1% DMSO was used as a control. Total RNA was extracted using the RNeasy minikit (Qiagen), and 5 μg of purified RNA was used to synthesize cDNA using the RT^2 first strand kit (Qiagen). The RT-qPCR was performed using Maxima SYBR green/ROX qPCR master mix (Thermo Fisher) in a RealPlex^2 Mastercycler (Eppendorf) with a 55°C annealing temperature. The primers (Table S3) were designed using the PrimerQuest tool and obtained from Integrated DNA Technologies (IDT). The data were normalized to the housekeeping gene encoding glyceraldehyde-3-phosphate dehydrogenase (GAPDH), and relative fold changes were calculated using the cycle threshold (ΔΔCT) method ([79]). Two independent experiments were conducted.
# APEC serotype O78 = system: APEC serotype O78
# Description: The efficacy of GIs was assessed using commercial broiler chickens (n = 6/group). […] GI compounds (ChemBridge, San Diego, CA) dissolved in dimethyl sulfoxide (DMSO) were administered orally using a syringe, twice a day, from day 4 (1 day before APEC infection) to day 8 (3 days postinfection [dpi]). The dose of each GI is described in Table S1. […] Chickens that were infected and vehicle-treated (positive control [PC]) and noninfected and nontreated (negative control [NC]) were included as controls. On day 5, chickens were infected subcutaneously (s.c.) with rifampin-resistant (Rif^r) APEC serotype O78 ([18]) (1 × 10^7 CFU/chicken). […] To prepare the APEC inoculum for infection, Rif^r APEC O78 (50 μg/ml rifampin) was grown to logarithmic phase in LB medium, washed twice with phosphate-buffered saline (PBS), and adjusted to an optical density at 600 nm (OD600) of 0.1 (5 × 10^7 CFU/ml). The clinical signs and mortality were recorded until 7 dpi. Chickens that died during this period were necropsied on the same day, lesions in internal organs (liver, heart, lung, and air sacs) were scored as described previously ([63], [71]), and the APEC loads were quantified in internal organs (liver, heart, lung, and kidney) by plating the tissue homogenates on MacConkey agar plates containing 50 μg/ml rifampin ([18]). At 7 dpi (day 12), all live birds were euthanized, lesions were scored, and the APEC loads in internal organs were quantified as described above. The body weight of chickens was measured before GI treatment (day 3) and at the day of necropsy (day 12).
# APEC O78 [3] = assay: Comparative efficacy of GI-7 and sulfadimethoxine, floor trial; format: in vivo, commercial broiler chickens; set-up: Cumulative lesion score / Mean lesion score in Liver / Mean lesion score in Heart / Mean lesion score in Lung / Mean lesion score in Air sacs: scale not given here
# Description: At day 13 (7 dpi), half of the chickens from each group, and at day 42 (slaughter age), 10 chickens from each group were necropsied and lesions and APEC loads were assessed as described above.
# [4] = comparative efficacy trial, vs PC
# [5] = comparative efficacy, GI-7 60 mg/liter, SDM 495.3 mg/liter, 7 dpi
structure (smiles),measurement,setting,value
COc1ccc(CNCc2cccc(C(F)(F)F)c2)cc1OCC(O)CN1CCCC1 (centres unmarked) [GI-7],MIC,APEC O78 [1],25 µM
same,LPS level in OM of APEC,APEC,lower level of LPS
same,Downregulation of lptD gene expression,APEC O78 [2]; ~50% growth inhibition,12.90 fold
same,Downregulation of bamA gene expression,APEC O78 [2],7.72 fold
same,Downregulation of lolB gene expression,APEC O78 [2],1.92 fold
same,Downregulation of lptA gene expression,APEC O78 [2],5.13 fold
same,Downregulation of lptC gene expression,APEC O78 [2],4.99 fold
same,Downregulation of lptE gene expression,APEC O78 [2],5.39 fold
same,Downregulation of mlaA gene expression,APEC O78 [2],9.94 fold
same,Downregulation of pbgA gene expression,APEC O78 [2],5.75 fold
same,"Mean APEC load, Heart","APEC serotype O78; efficacy trial, oral",2.7 Log CFU/g tissues
same,"Mean APEC load, Kidney","APEC serotype O78; efficacy trial, oral",2.3 Log CFU/g tissues
same,"Mean APEC load, Liver","APEC serotype O78; efficacy trial, oral",2.1 Log CFU/g tissues
same,"Mean APEC load, Lung","APEC serotype O78; efficacy trial, oral",2.7 Log CFU/g tissues
same,Mean lesion score in Air sacs,"APEC serotype O78; efficacy trial, oral",0.7
same,Mean lesion score in Heart,"APEC serotype O78; efficacy trial, oral",0.8
same,Mean lesion score in Liver,"APEC serotype O78; efficacy trial, oral",0.7
same,Mean lesion score in Lung,"APEC serotype O78; efficacy trial, oral",0.2
same,Survival of chickens,"APEC serotype O78; efficacy trial, oral, P ≤ 0.1, log rank test",prolonged the survival
same,Cumulative lesion score,"APEC serotype O78; efficacy trial, oral, PC 6.2",2.3
same,Mortality reduction compared to PC group,"APEC serotype O78; efficacy trial, oral, PC mortality 58.3%",41.7%
same,"% reduction in severity, Air sacs lesions","APEC serotype O78; efficacy trial, oral, vs PC",52.9%
same,"% reduction in severity, Heart lesions","APEC serotype O78; efficacy trial, oral, vs PC",60%
same,"% reduction in severity, Liver lesions","APEC serotype O78; efficacy trial, oral, vs PC",60%
same,"% reduction in severity, Lung lesions","APEC serotype O78; efficacy trial, oral, vs PC",83.3%
same,"log reduction in APEC load, Heart","APEC serotype O78; efficacy trial, oral, vs PC",2.3 Log CFU/g tissues
same,"log reduction in APEC load, Kidney","APEC serotype O78; efficacy trial, oral, vs PC",3.2 Log CFU/g tissues
same,"log reduction in APEC load, Liver","APEC serotype O78; efficacy trial, oral, vs PC",2.5 Log CFU/g tissues
same,"log reduction in APEC load, Lung","APEC serotype O78; efficacy trial, oral, vs PC",2.4 Log CFU/g tissues
same,BWG (body weight gain),APEC serotype O78; in vivo,261.3±20.4
same,Reduction of severity of lesions,"APEC O78 [3]; 60 mg/liter in drinking water, as given in the abstract",29.5%
same,Mortality reduction compared to PC group,"APEC O78 [3]; GI-7 60 mg/liter, SDM 495.3 mg/liter in drinking water, PC mortality 41.2%",14.7%
same,"Mean APEC load, Heart",APEC O78 [3]; comparative efficacy trial,6.1 Log CFU/g tissues
same,"Mean APEC load, Kidney",APEC O78 [3]; comparative efficacy trial,6.1 Log CFU/g tissues
same,"Mean APEC load, Liver",APEC O78 [3]; comparative efficacy trial,5.7 Log CFU/g tissues
same,"Mean APEC load, Lung",APEC O78 [3]; comparative efficacy trial,6.1 Log CFU/g tissues
same,"log reduction in APEC load, Heart",APEC O78 [3]; [4],1.8 Log CFU/g tissues
same,"log reduction in APEC load, Kidney",APEC O78 [3]; [4],1.6 Log CFU/g tissues
same,"log reduction in APEC load, Liver",APEC O78 [3]; [4],1.8 Log CFU/g tissues
same,"log reduction in APEC load, Lung",APEC O78 [3]; [4],2.0 Log CFU/g tissues
same,Cumulative lesion score,"APEC O78 [3]; comparative efficacy, 7 dpi",9.8
same,Mean lesion score in Air sacs,APEC O78 [3]; [5],3.0
same,Mean lesion score in Heart,APEC O78 [3]; [5],3.2
same,Mean lesion score in Liver,APEC O78 [3]; [5],2.3
same,Mean lesion score in Lung,APEC O78 [3]; [5],1.3
same,"% reduction in severity, Air sacs lesions","APEC O78 [3]; comparative efficacy, vs PC",9.9%
same,"% reduction in severity, Heart lesions","APEC O78 [3]; comparative efficacy, vs PC",10.2%
same,"% reduction in severity, Liver lesions","APEC O78 [3]; comparative efficacy, vs PC",7.2%
same,"% reduction in severity, Lung lesions","APEC O78 [3]; comparative efficacy, vs PC",29.5%
same,Effect on body weight gain (BWG) and feed conversion ratio (FCR),APEC O78 [3]; floor trial,No significant effect
same,Overall BWG,"APEC O78 [3]; floor trial, day 42 minus day 1, NC 2,501.2","2,432.4 g"
same,Overall FCR,"APEC O78 [3]; floor trial, NC 1.45",1.45
same,Survival of chickens,"APEC O78 [3]; floor trial, P < 0.1",increased the survival
